Experiments:
NPM1 = experiment: qPCR of NPM1 expression in OCI-AML3 cells; type: cell-based; conditions: OCI-AML3, 10 μM
Source text: (§1) We next studied the impact of UCM-13369 in the genes and/or expression levels of NPM1 and NPM1 C+ pathway components (Figure 4A), including the positive regulation of c-Myc[34] and the negative regulation of FBXW7 and the pro-apoptotic CASP8.[35] […] The inhibition of NPM1 was also observed in MOLM13 cells expressing WT NPM1 (Figure S1B). […]
quantitative real-time PCR (qPCR), or were sorted using a FACS BD INFL UX cell sorter (BD Biosciences, Franklin Lakes, NJ, USA). All cells were maintained at 37 °C in a humidified incubator in an atmosphere of 5% CO2, and passaged every 2–3 days.
Additionally, they were cultured using RPMI media (Gibco/Life Technologies; Grand Island, NY, USA) supplemented with 10% fetal bovine serum (FBS) (Hyclone) and […]
(§2) Primary cells. […] After 72 h in maintenance cells were ready to start the assays. […]
(§3) Colonospheres, mamospheres and colony formation unit assays. […] After 10 days (mamospheres and colonospheres) and 14 days (CFU-E) we quantified t he number of colonies/spheres and number of cell s (CFU-E) by […]
(§4) RNA and DNA extraction and quantitative PCR (qPCR). […] Gene expression was studied from the extracted RNA, processed into cDNA to quantify the expression of NPM1 and c-MYC. […]
(§5) The relative amount of targets was determined by the comparative Ct method.
Western blot. […] Lysates wer e cl ear ed by centrifugation (14,000g, 4 °C, 30 min), protein concentration determined by Bradford

[1] = In vivo pharmacokinetic study; set-up: species or system mouse; conditions: single intraperitoneal administration, 25 mg/kg, up to 6 h
Method: Based on the encouraging results obtained in ex vivo models of AML, we further assessed the therapeutic potential of the new NPM1 inhibitor in vivo. Prior to the evaluation of the compound in an animal model of AML, in vivo pharmacokinetic studies were addressed. Following a single intraperitoneal administration of UCM-13369 at a dose of 25 mg/kg, levels of 200–600 μg/L were detected in mouse peripheral blood up to 6 h (Figure 6A). Plasma protein binding of the compound in mouse serum was measured using an equilibrium dialysis assay, indicating a bound fraction of 83 ± 1%. Next, the efficacy of the compound was evaluated in immunodeficient mice after injection of OCI-AML3-ffLuc-GFP cells as an AML animal model.
For the pharmacokinetic study of UCM-13369, after injecting 25 mg/kg dose of the compound, samples of blood were withdrawn at different times (30, 60, 120, 240, 360 min), and the presence of tested compound was analyzed by HPLC-MS. The area of the molecular peak allowed us to calculate the concentration of the compound present in mice serum at each time.

OCI-AML3 (NPM1 C+) = experiment: Cell viability dose-response in AML cell line (NPM1 C+); type: cell-based; conditions: Homo sapiens, OCI-AML-3; OCI-AML3, 48 h
Source text: One of the most paradigmatic diseases with critical involvement of CSCs is AML. Among the AML stem cell population, CD34+/CD38- are the only ones capable of inducing leukemia in vivo.[27] […] We focused on proteins that disappeared completely after treatment with the compound and whose concentration could be quantified in untreated samples. According to this profile, 340 proteins, including targets related with stemness and cancer, were identified (see Supplementary Excel file). Among them, nucleophosmin 1 (NPM1) especially attracted our attention, as it is one of the most common mutated proteins in AML.[28] To support that the inhibitory capacity of UCM-13369 observed in CSC cells (see Table S1) is mediated by NPM1, the compound was tested on OCI-AML3 and MOLM13 cell lines, as in vitro AML models bearing mutant (NPM1 C+) and wild-type (WT) protein, respectively.
The test compound was diluted in PBS.

HCT-116 = experiment: Cytotoxic effect in colon tumor cell line (MTT); conditions: Homo sapiens, HCT-116, read-out: Viability (%) HCT-116, @5 µM (footnote d)
Method: The cytotoxic effect was determined in breast (MCF-7) and colon (HCT-116) tumor cell lines using MTT assays.
Cells were seeded at 3 × 10^4 cells/mL in 96-well plates. The test compound was diluted in PBS. […] Viability was evaluated by MTT or WST-1 and dose/response curves were performed.

c-Myc = experiment: qPCR and Western blot of c-Myc in OCI-AML3 cells; type: cell-based
Source text: as §1
quantitative real-time PCR (qPCR), or were sorted using a FACS BD INFL UX cell sorter (BD Biosciences, Franklin Lakes, NJ, USA). All cells were maintained at 37 °C in a humidified incubator in an atmosphere of 5% CO2, and passaged every 2–3 days. […]
as §2, §3, §4, §5
Western blot. […] Lysates wer e cl ear ed by centrifugation (14,000g, 4 °C, 30 min), protein concentration determined by Bradford […]
Proteomic analysis. […] Follows the image of a Venn diagram showing the number of proteins detected in each of the pop ulations and the proteins that converg e […]

With `COc1ccc(C2Cc3[nH]c4ccccc4c3C(CCNCC3CC3)C2N)cc1` (centres unmarked) [4b, 4-{2-[(Cyclopropylmethyl)amino]ethyl}-2-(4-methoxyphenyl)-2,3,4,9-tetrahydro-1H-carbazol-3-amine] the “NPM1 expression, dot plot (in words)” value (NPM1) was “decreased NPM1 expression”, the “Levels in mouse peripheral blood” value [1] was 200 to 600 µg/L and the IC50 (OCI-AML3 (NPM1 C+)) was 7.26 µM. For the same compound, the viability at 5 µM (HCT-116) was 70% and the “c-Myc levels (in words)” value (c-Myc) was “reduced levels”.
